# Reference: patent publication US4178442A, “Novel cinnamoyles piperazines and homopiperazines, the method of preparing them and their application in therapeutics” (Delalande S. A., priority 1977, dated 1979)
# Where two headings read alike, the source gives them in different places.
# Legend:
# [1] = system: anaesthetized dog; assay: Antiangorous activity on anaesthetized dog: consumption of oxygen in the left ventricule and cardiac effort (KATZ's index); format: in vivo; conditions: for inhibition in vivo at 0.625 mg/kg / inhibition in vivo at 0.6 mg/kg / inhibition in vivo at 2.5 mg/kg / inhibition in vivo at 4.5 mg/kg / inhibition in vivo at 0.12 mg/kg / inhibition in vivo at 2.3 mg/kg / inhibition in vivo at 1.25 mg/kg / inhibition in vivo at 2.1 mg/kg: Canis lupus familiaris, iv
# Procedure: The antiangorous activity was tested on an anaesthetized dog (sodium pentobarbital 30 mg/kg/i.v.).
# The consumption of oxygen in the left ventricule was estimated by the product of the coronary venous flow and the coronary arteriovenous difference in oxygen (% volume).
# The coronary venous flow was measured at the coronary venous sinus by means of a modified Morawitz cannula, introduced under radioscopic control.
# The cardiac effort was estimated according to KATZ's index, by the product of the average arterial pressure and the cardiac frequency.
# The cardiac frequency was estimated from the electrocardiogram recorded with D2 derivation.
# It should be noted that the compounds tested were injected intravenously with slow perfusion.
# [2] = in vivo; conditions: for mortality: read-out: Toxicity (Mortality); for LD50: read-out: Toxicity: LD50
# Text: *LD50 or percentage of mortality which is given between brackets
# [3] = 0.625 mg/kg i.v. slow perfusion
# [4] = 0.625 mg/kg i.v. slow perfusion, read-out: Diminution in consumption of O2
# [5] = 0.625 mg/kg i.v. slow perfusion, read-out: Diminution in the cardiac effort (IK)
# [6] = 2.5 mg/kg i.v. slow perfusion, read-out: Diminution in consumption of O2
# [7] = 2.5 mg/kg i.v. slow perfusion, read-out: Diminution in the cardiac effort (IK)
smiles,measurement,setting,value
CCCC(=O)Nc1ccc(OCC(O)CN2CCN(C(=O)/C=C/c3cc(OC)c(OC)c(OC)c3)CC2)c2c1OCCO2 (centres unmarked) [770 610],Diminution in consumption of O2: in time,[1]; [3],60 min
same,Diminution in the cardiac effort (IK): in time,[1]; [3],45 min
same,inhibition in vivo at 0.625 mg/kg,[1]; [4],56%
same,inhibition in vivo at 0.625 mg/kg,[1]; [5],34%
same,mortality,"[2]; po, p.o.: 2000 mg/kg",0%
CCCC(=O)c1ccc(OCC(O)CN2CCN(C(=O)/C=C/c3cc(OC)c(OC)c(OC)c3)CC2)c2c1OCCO2 (centres unmarked) [760 866],Diminution in consumption of O2: in time,[1]; 0.6 mg/kg i.v. slow perfusion,30 min
same,Diminution in the cardiac effort (IK): in time,[1]; 0.6 mg/kg i.v. slow perfusion,30 min
same,inhibition in vivo at 0.6 mg/kg,"[1]; 0.6 mg/kg i.v. slow perfusion, read-out: Diminution in consumption of O2",54%
same,inhibition in vivo at 0.6 mg/kg,"[1]; 0.6 mg/kg i.v. slow perfusion, read-out: Diminution in the cardiac effort (IK)",20%
same,mortality,"[2]; iv, 360 mg/kg i.v.",30%
CNC(=O)Nc1ccc(OCC(O)CN2CCN(C(=O)/C=C/c3cc(OC)c(OC)c(OC)c3)CC2)c2c1OCO2 (centres unmarked) [780 409],Diminution in consumption of O2: in time,[1]; 2.5 mg/kg i.v. slow perfusion,90 min
same,Diminution in the cardiac effort (IK): in time,[1]; 2.5 mg/kg i.v. slow perfusion,90 min
same,inhibition in vivo at 2.5 mg/kg,[1]; [6],54%
same,inhibition in vivo at 2.5 mg/kg,[1]; [7],43%
same,mortality,"[2]; iv, 400 mg/kg i.v.",20%
COc1cc(/C=C/C(=O)N2CCN(CC(O)COc3ccccc3C#N)CC2)cc(OC)c1OC (centres unmarked) [760 389],Diminution in consumption of O2: in time,[1]; 4.5 mg/kg i.v. slow perfusion,60 min
same,Diminution in the cardiac effort (IK): in time,[1]; 4.5 mg/kg i.v. slow perfusion,60 min
same,inhibition in vivo at 4.5 mg/kg,"[1]; 4.5 mg/kg i.v. slow perfusion, read-out: Diminution in consumption of O2",70%
same,inhibition in vivo at 4.5 mg/kg,"[1]; 4.5 mg/kg i.v. slow perfusion, read-out: Diminution in the cardiac effort (IK)",55%
same,LD50,[2]; iv,245 mg/kg
"COc1cc(/C=C/C(=O)N2CCN(CC(O)COc3ccc(C(C)=O)cc3C)CC2)cc(OC)c1OC (centres unmarked) [770 993, 1-[3-(2-methyl-4-acetyl)phenyl-2-hydroxy]-propyl-4-(3,4,5-trimethoxycinnamoyl)piperazine chlorhydrate]",Diminution in consumption of O2: in time,[1]; 2.5 mg/kg i.v. slow perfusion,23 min
same,Diminution in the cardiac effort (IK): in time,[1]; 2.5 mg/kg i.v. slow perfusion,13 min
same,inhibition in vivo at 2.5 mg/kg,[1]; [6],53%
same,inhibition in vivo at 2.5 mg/kg,[1]; [7],15%
same,LD50,[2]; iv,10 mg/kg
COc1cc(C(C)=O)ccc1OCC(O)CN1CCN(C(=O)/C=C/c2cc(OC)c(OC)c(OC)c2)CC1 (centres unmarked) [770 073],Diminution in consumption of O2: in time,[1]; 0.12 mg/kg i.v. slow perfusion,30 min
same,Diminution in the cardiac effort (IK): in time,[1]; 0.12 mg/kg i.v. slow perfusion,15 min
same,inhibition in vivo at 0.12 mg/kg,"[1]; 0.12 mg/kg i.v. slow perfusion, read-out: Diminution in consumption of O2",24%
same,inhibition in vivo at 0.12 mg/kg,"[1]; 0.12 mg/kg i.v. slow perfusion, read-out: Diminution in the cardiac effort (IK)",16%
same,LD50,[2]; iv,158 mg/kg
CNC(=O)Nc1ccc(OCC(O)CN2CCN(C(=O)/C=C/c3cc(OC)c(OC)c(OC)c3)CC2)cc1 (centres unmarked) [770 056],Diminution in consumption of O2: in time,[1]; [3],15 min
same,Diminution in the cardiac effort (IK): in time,[1]; [3],15 min
same,inhibition in vivo at 0.625 mg/kg,[1]; [4],49%
same,inhibition in vivo at 0.625 mg/kg,[1]; [5],22%
same,LD50,[2]; iv,160 mg/kg
CNC(=O)Cc1ccc(OCC(O)CN2CCN(C(=O)/C=C/c3cc(OC)c(OC)c(OC)c3)CC2)c2c1OCCO2 (centres unmarked) [770 382],Diminution in consumption of O2: in time,[1]; [3],15 min
same,Diminution in the cardiac effort (IK): in time,[1]; [3],15 min
same,inhibition in vivo at 0.625 mg/kg,[1]; [4],36%
same,inhibition in vivo at 0.625 mg/kg,[1]; [5],16%
same,mortality,"[2]; iv, 400 mg/kg i.v.",30%
COc1cc(/C=C/C(=O)N2CCN(CC(O)COc3ccccc3Cl)CC2)cc(OC)c1OC (centres unmarked) [760 520],Diminution in consumption of O2: in time,[1]; 2.3 mg/kg i.v. slow perfusion,40 min
same,Diminution in the cardiac effort (IK): in time,[1]; 2.3 mg/kg i.v. slow perfusion,30 min
same,inhibition in vivo at 2.3 mg/kg,"[1]; 2.3 mg/kg i.v. slow perfusion, read-out: Diminution in consumption of O2",45%
same,inhibition in vivo at 2.3 mg/kg,"[1]; 2.3 mg/kg i.v. slow perfusion, read-out: Diminution in the cardiac effort (IK)",13%
same,LD50,[2]; iv,157 mg/kg
CCCC(=O)Nc1ccc(OCC(O)CN2CCN(C(=O)/C=C/c3cc(OC)c(OC)c(OC)c3)CC2)cc1 (centres unmarked) [760 892],Diminution in consumption of O2: in time,[1]; 2.5 mg/kg i.v. slow perfusion,60 min
same,Diminution in the cardiac effort (IK): in time,[1]; 2.5 mg/kg i.v. slow perfusion,45 min
same,inhibition in vivo at 2.5 mg/kg,[1]; [6],74%
same,inhibition in vivo at 2.5 mg/kg,[1]; [7],22%
same,mortality,"[2]; iv, 400 mg/kg i.v.",40%
CNC(=O)c1ccc(OCC(O)CN2CCN(C(=O)/C=C/c3cc(OC)c(OC)c(OC)c3)CC2)cc1 (centres unmarked) [770 135],Diminution in consumption of O2: in time,[1]; 1.25 mg/kg i.v. slow perfusion,30 min
same,Diminution in the cardiac effort (IK): in time,[1]; 1.25 mg/kg i.v. slow perfusion,30 min
same,inhibition in vivo at 1.25 mg/kg,"[1]; 1.25 mg/kg i.v. slow perfusion, read-out: Diminution in consumption of O2",40%
same,inhibition in vivo at 1.25 mg/kg,"[1]; 1.25 mg/kg i.v. slow perfusion, read-out: Diminution in the cardiac effort (IK)",28%
same,mortality,"[2]; iv, 400 mg/kg i.v.",0%
COc1cc(/C=C/C(=O)N2CCN(CC(O)COc3ccc(C(C)=O)c4c3OCCO4)CC2)cc(OC)c1OC (centres unmarked) [760 394],Diminution in consumption of O2: in time,[1]; 2.1 mg/kg i.v. slow perfusion,60 min
same,Diminution in the cardiac effort (IK): in time,[1]; 2.1 mg/kg i.v. slow perfusion,45 min
same,inhibition in vivo at 2.1 mg/kg,"[1]; 2.1 mg/kg i.v. slow perfusion, read-out: Diminution in consumption of O2",60%
same,inhibition in vivo at 2.1 mg/kg,"[1]; 2.1 mg/kg i.v. slow perfusion, read-out: Diminution in the cardiac effort (IK)",46%
same,LD50,[2]; iv,214 mg/kg
CCC(=O)c1ccc(OCC(O)CN2CCN(C(=O)/C=C/c3cc(OC)c(OC)c(OC)c3)CC2)cc1 (centres unmarked) [770 854],Diminution in consumption of O2: in time,[1]; 2.5 mg/kg i.v. slow perfusion,40 min
same,Diminution in the cardiac effort (IK): in time,[1]; 2.5 mg/kg i.v. slow perfusion,40 min
same,inhibition in vivo at 2.5 mg/kg,[1]; [6],41%
same,inhibition in vivo at 2.5 mg/kg,[1]; [7],18%
same,mortality,"[2]; iv, 300 mg/kg i.v.",20%
